Five molecules from patent US20250346593A1, “IMIDAZO(1,2-1)PYRIDINE DERIVATIVES AS RIPK2 INHIBITORS” (Interline Therapeutics, Inc., priority 2022, published 2025) can be followed below.

pIC50: −log10 of the molar value.

In experiment [1] the test system is NF-κB pathway (SEAP) in THP1-Dual cells. The experiment in a line: THP-1 Dual cell SEAP assay (L18-MDP stimulated). In kind it is cell-based. The following applies: Homo sapiens, THP1-Dual, read-out: NFkB THP1 IC50.
The target of experiment [2] is GST-RIPK2 fusion protein (human RIPK2 amino acids 1-310) (Homo sapiens (Human), UniProt O43353). Nature of the experiment: RIPK2 binding competition assay (TR-FRET, Tracer 199). Conditions: read-out: RIPK2 IC50; RIPK2 binding competition assay. (In TR-FRET formats the signal depends on donor and acceptor labels being close together.)
GST-RIPK2 fusion protein (human RIPK2 amino acids 1-310), sequence (O43353 1-310): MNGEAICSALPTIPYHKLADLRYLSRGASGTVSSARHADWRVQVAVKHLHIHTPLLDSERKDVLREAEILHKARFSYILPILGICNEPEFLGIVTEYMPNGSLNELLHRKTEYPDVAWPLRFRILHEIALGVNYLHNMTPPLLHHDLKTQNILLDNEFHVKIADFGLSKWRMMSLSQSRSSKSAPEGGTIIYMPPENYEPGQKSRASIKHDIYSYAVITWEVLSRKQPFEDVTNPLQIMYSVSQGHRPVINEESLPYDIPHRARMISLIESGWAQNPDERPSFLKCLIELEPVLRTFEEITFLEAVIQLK

One may read the pIC50 as −log10 of the IC50, conventionally taken in molar units. For the molecule `COc1cc2ncc(-c3cc(F)nc(NCc4ccc(=O)[nH]c4)c3)n2cc1S(=O)(=O)C(C)(C)C` [Example 184, 5-(((4-(6-(tert-butylsulfonyl)-7-methoxyimidazo[1,2-a]pyridin-3-yl)-6-fluoropyridin-2-yl)amino)methyl) pyridin-2(1H)-one], the pIC50 was 6.60 to 7.30 in experiment [1] and more than 9.00 in experiment [2].
Consider `CCCS(=O)(=O)Nc1cc(-c2cnc3cc(OC)c(S(=O)(=O)C(C)(C)C)cn23)cc(OC)c1OC` [Example 10, N-(5-(6-(tert-butylsulfonyl)-7-methoxyimidazo[1,2-a]pyridin-3-yl)-2,3-dimethoxyphenyl) propane-1-sulfonamide], for which the negative-log IC50 (pIC50) was more than 7.30 in experiment [1] and more than 9.00 in experiment [2].
As for `CCCS(=O)(=O)Nc1nc(-c2cnc3cc(OC)c(S(=O)(=O)C(C)(C)C)cn23)ccc1OC` [compound 314, N-(6-(6-(tert-butylsulfonyl)-7-methoxyimidazo[1,2-a]pyridin-3-yl)-3-methoxypyridin-2-yl)propane-1-sulfonamide], the pIC50 in experiment [1] is less than 6.00; in experiment [2], less than 7.70.
For `COc1cc2ncc(-c3cc(F)nc(N(C)C)c3)n2cc1S(=O)(=O)C(C)(C)C` [Example 186, 4-(6-(tert-butylsulfonyl)-7-methoxyimidazo[1,2-a]pyridin-3-yl)-6-fluoro-N,N-dimethylpyridin-2-amine], in that order: more than 7.30 and more than 9.00.
With `COc1cc2ncc(-c3cc(F)nc(NCCCN)c3)n2cc1S(=O)(=O)C(C)(C)C` [Example 194, N1-(4-(6-(tert-butylsulfonyl)-7-methoxyimidazo[1,2-a]pyridin-3-yl)-6-fluoropyridin-2-yl)propane-1,3-diamine], the pIC50 in experiment [1] is more than 7.30; in experiment [2] it was more than 9.00.
